From PMC10850145, “Hormonal steroids induce multidrug resistance and stress response genes in Neisseria gonorrhoeae by binding to MtrR” (Nature Communications, 2024)
Several values for one entry are separate records, joined by “and”; a condition that tells them apart may be missing. Equal values may be shown once. Read-outs that look alike come from different tables or passages of the source.

Tests used:
MtrR D171A = target: T1, MtrR D171A (Neisseria gonorrhoeae, UniProt P39897, D171A); experiment: biochemical; format: binding
T1 construct: Hexa-histidine tag with TEV protease cleavage site (N, cleaved yes); made in house; host or cells: E. coli Rosetta Gami B(DE3) pLysS
T1 sequence (P39897 whole entry D171A): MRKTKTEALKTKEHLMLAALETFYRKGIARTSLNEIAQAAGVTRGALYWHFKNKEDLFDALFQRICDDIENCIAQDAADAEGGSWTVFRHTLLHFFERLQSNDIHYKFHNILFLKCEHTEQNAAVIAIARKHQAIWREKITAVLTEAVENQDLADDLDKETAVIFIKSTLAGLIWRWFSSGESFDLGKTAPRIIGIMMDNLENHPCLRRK

mtrC-lacZ expression = format: cell-based, Neisseria gonorrhoeae; conditions: for Miller units, single well / Miller units, Mean: upper 4-row block; for Miller units, single well: individual replicate; for Miller units, Mean: mean of 4 wells; for β-galactosidase activity, single replicate: ΔmtrR + mtrR R176E in trans; for β-galactosidase activity, individual replicate / β-galactosidase activity, Miller units (single replicate): mtrR WT in cis; for β-galactosidase activity, individual replicate: single replicate values, second (right) block
[1] = 6.25 µM hormone, plate columns 1-6 (WT)
[2] = 6.25 µM hormone, plate columns 7-12 (second strain, not WT)
[3] = 12.5 µM hormone, plate columns 1-6 (WT)
[4] = 12.5 µM hormone, plate columns 7-12 (second strain, not WT)
[5] = 25 µM hormone, plate columns 7-12 (second strain, not WT)
[6] = 50 µM hormone, plate columns 1-6 (WT)
[7] = 50 µM hormone, plate columns 7-12 (second strain, not WT)
[8] = mtrC-lacZ, ΔmtrR + mtrR D171A in trans, 6.25 µM hormone, single replicate
[9] = mtrC-lacZ, ΔmtrR + mtrR D171A in trans, 12.5 µM hormone, single replicate
[10] = mtrC-lacZ, ΔmtrR + mtrR D171A in trans, 25 µM hormone, single replicate
[11] = mtrC-lacZ, ΔmtrR + mtrR D171A in trans, 50 µM hormone, single replicate
[12] = mtrC-lacZ, ΔmtrR + mtrR WT in trans, 6.25 µM hormone, single replicate
[13] = mtrC-lacZ, ΔmtrR + mtrR WT in trans, 12.5 µM hormone, single replicate
[14] = mtrC-lacZ, ΔmtrR + mtrR WT in trans, 25 µM hormone, single replicate
[15] = mtrC-lacZ, ΔmtrR + mtrR WT in trans, 50 µM hormone, single replicate

With `CC(=O)[C@H]1CC[C@H]2[C@@H]3CCC4=CC(=O)CC[C@]4(C)[C@H]3CC[C@]12C` [Progesterone, progesterone] the Kd (MtrR D171A) was 8.36 ± 2.5 µM, the Miller units (mtrC-lacZ expression; 6.25 µM hormone, plate columns 1-6 (WT), plate rows 1-4 (mtrC), single well) was 82 Miller units and 48 Miller units and 89 Miller units and the “Miller units, single well” value (mtrC-lacZ expression; [1]) was 82 Miller units and 48 Miller units and 89 Miller units and 47 Miller units. For the same compound, the “Miller units, Mean” value (mtrC-lacZ expression; [1]) was 66 Miller units, the Miller units (mtrC-lacZ expression; 6.25 µM hormone, plate columns 7-12 (second strain not given), plate rows 1-4 (mtrC), single well) was 315 Miller units and 180 Miller units and 172 Miller units and the “Miller units, single well” value (mtrC-lacZ expression; [2]) was 315 Miller units and 180 Miller units and 172 Miller units and 146 Miller units. For the same compound, the “Miller units, Mean” value (mtrC-lacZ expression; [2]) was 203 Miller units, the Miller units (mtrC-lacZ expression; 12.5 µM hormone, plate columns 1-6 (WT), plate rows 1-4 (mtrC), single well) was 112 Miller units and 91 Miller units and 70 Miller units and the “Miller units, single well” value (mtrC-lacZ expression; [3]) was 112 Miller units and 91 Miller units and 70 Miller units and 43 Miller units. For the same compound, the “Miller units, Mean” value (mtrC-lacZ expression; [3]) was 79 Miller units, the Miller units (mtrC-lacZ expression; 12.5 µM hormone, plate columns 7-12 (second strain not given), plate rows 1-4 (mtrC), single well) was 228 Miller units and 168 Miller units and 142 Miller units and the “Miller units, single well” value (mtrC-lacZ expression; [4]) was 228 Miller units and 168 Miller units and 142 Miller units and 163 Miller units. For the same compound, the “Miller units, Mean” value (mtrC-lacZ expression; [4]) was 175 Miller units, the Miller units (mtrC-lacZ expression; 25 µM hormone, plate columns 1-6 (WT), plate rows 1-4 (mtrC), single well) was 152 Miller units and 193 Miller units and the “Miller units, single well” value (mtrC-lacZ expression; 25 µM hormone, plate columns 1-6 (WT)) was 152 Miller units and 193 Miller units and 125 Miller units. The Miller units (mtrC-lacZ expression; 25 µM hormone, plate columns 7-12 (second strain not given), plate rows 1-4 (mtrC), single well) was 253 Miller units and 170 Miller units and 160 Miller units, the “Miller units, single well” value (mtrC-lacZ expression; [5]) was 253 Miller units and 170 Miller units and 160 Miller units and 118 Miller units and the “Miller units, Mean” value (mtrC-lacZ expression; [5]) was 175 Miller units. For the same compound, the Miller units (mtrC-lacZ expression; 50 µM hormone, plate columns 1-6 (WT), plate rows 1-4 (mtrC), single well) was 185 Miller units and 157 Miller units and 126 Miller units, the “Miller units, single well” value (mtrC-lacZ expression; [6]) was 185 Miller units and 157 Miller units and 126 Miller units and 75 Miller units and the “Miller units, Mean” value (mtrC-lacZ expression; [6]) was 136 Miller units. For the same compound, the Miller units (mtrC-lacZ expression; 50 µM hormone, plate columns 7-12 (second strain not given), plate rows 1-4 (mtrC), single well) was 186 Miller units and 138 Miller units and 118 Miller units, the “Miller units, single well” value (mtrC-lacZ expression; [7]) was 186 Miller units and 138 Miller units and 118 Miller units and 96 Miller units and the “Miller units, Mean” value (mtrC-lacZ expression; [7]) was 134 Miller units. The “induction of mtrC expression” value (mtrC-lacZ expression; complemented (MtrR+) strains, increasing hormone) was “could be induced”, the “induction of mtrC expression” value (mtrC-lacZ expression; loss of MtrR or MtrR-D171A strain) was “abrogated” and the Miller units (mtrC-lacZ expression; [8]) was 150 Miller units and 142 Miller units. The “β-galactosidase activity (Miller units)” value (mtrC-lacZ expression; [8]) was 147 Miller units and 144 Miller units and 150 Miller units and 142 Miller units, the Miller units (mtrC-lacZ expression; [9]) was 139 Miller units and 154 Miller units and the “β-galactosidase activity (Miller units)” value (mtrC-lacZ expression; [9]) was 146 Miller units and 130 Miller units and 139 Miller units and 154 Miller units. For the same compound, the Miller units (mtrC-lacZ expression; [10]) was 164 Miller units, the “β-galactosidase activity (Miller units)” value (mtrC-lacZ expression; [10]) was 161 Miller units and 184 Miller units and 164 Miller units and the Miller units (mtrC-lacZ expression; [11]) was 111 Miller units and 106 Miller units. For the same compound, the “β-galactosidase activity (Miller units)” value (mtrC-lacZ expression; [11]) was 114 Miller units and 91 Miller units and 111 Miller units and 106 Miller units, the Miller units (mtrC-lacZ expression; [12]) was 71 Miller units and 75 Miller units and 104 Miller units and 85 Miller units and the “β-galactosidase activity (Miller units)” value (mtrC-lacZ expression; [12]) was 71 Miller units and 75 Miller units and 104 Miller units and 85 Miller units. For the same compound, the Miller units (mtrC-lacZ expression; [13]) was 90 Miller units and 80 Miller units and 98 Miller units and 88 Miller units, the “β-galactosidase activity (Miller units)” value (mtrC-lacZ expression; [13]) was 90 Miller units and 80 Miller units and 98 Miller units and 88 Miller units and the Miller units (mtrC-lacZ expression; [14]) was 120 Miller units and 101 Miller units and 124 Miller units and 107 Miller units. For the same compound, the “β-galactosidase activity (Miller units)” value (mtrC-lacZ expression; [14]) was 120 Miller units and 101 Miller units and 124 Miller units and 107 Miller units, the Miller units (mtrC-lacZ expression; [15]) was 125 Miller units and 123 Miller units and 130 Miller units and 139 Miller units and the “β-galactosidase activity (Miller units)” value (mtrC-lacZ expression; [15]) was 125 Miller units and 123 Miller units and 130 Miller units and 139 Miller units. For the same compound, the “β-galactosidase activity (Miller units)” value (mtrC-lacZ expression; mtrC-lacZ, ΔmtrR strain, 6.25 µM hormone, single replicate) was 239 Miller units, the “β-galactosidase activity (Miller units)” value (mtrC-lacZ expression; mtrC-lacZ, ΔmtrR strain, 12.5 µM hormone, single replicate) was 205 Miller units and the “β-galactosidase activity (Miller units)” value (mtrC-lacZ expression; mtrC-lacZ, ΔmtrR strain, 25 µM hormone, single replicate) was 223 Miller units. The “β-galactosidase activity (Miller units)” value (mtrC-lacZ expression; mtrC-lacZ, ΔmtrR strain, 50 µM hormone, single replicate) was 197 Miller units, the “β-galactosidase activity, single replicate” value (mtrC-lacZ expression; mtrCDE block (c1-c37), 6.25 µM) was 221 Miller units and 281 Miller units and 181 Miller units and 184 Miller units and the “β-galactosidase activity, single replicate” value (mtrC-lacZ expression; mtrCDE block (c1-c37), 12.5 µM) was 215 Miller units and 235 Miller units and 172 Miller units and 208 Miller units. The “β-galactosidase activity, single replicate” value (mtrC-lacZ expression; mtrCDE block (c1-c37), 25 µM) was 255 Miller units and 287 Miller units and 177 Miller units and 185 Miller units, the “β-galactosidase activity, single replicate” value (mtrC-lacZ expression; mtrCDE block (c1-c37), 50 µM) was 296 Miller units and 219 Miller units and 227 Miller units and 184 Miller units and the “β-galactosidase activity, individual replicate” value (mtrC-lacZ expression; 6.25 µM hormone) was 41 Miller units and 35 Miller units. For the same compound, the “β-galactosidase activity, Miller units (single replicate)” value (shortened to “β-galactosidase activity, Miller units”) (mtrC-lacZ expression; 6.25 µM, first data set (c15-c36)) was 115 Miller units and 113 Miller units and 101 Miller units and 103 Miller units, the “β-galactosidase activity, Miller units” value (mtrC-lacZ expression; 6.25 µM, second data set (c53-c74)) was 37 Miller units and 29 Miller units and the “β-galactosidase activity, individual replicate” value (mtrC-lacZ expression; 12.5 µM hormone) was 61 Miller units and 54 Miller units. The “β-galactosidase activity, Miller units” value (mtrC-lacZ expression; 12.5 µM, first data set (c15-c36)) was 153 Miller units and 144 Miller units and 132 Miller units, the “β-galactosidase activity, Miller units” value (mtrC-lacZ expression; 12.5 µM, second data set (c53-c74)) was 41 Miller units and 34 Miller units and the “β-galactosidase activity, individual replicate” value (mtrC-lacZ expression; 25 µM hormone) was 90 Miller units and 65 Miller units. The “β-galactosidase activity, Miller units” value (mtrC-lacZ expression; 25 µM, first data set (c15-c36)) was 256 Miller units and 186 Miller units and 175 Miller units and 160 Miller units, the “β-galactosidase activity, Miller units” value (mtrC-lacZ expression; 25 µM, second data set (c53-c74)) was 66 Miller units and 58 Miller units and the “β-galactosidase activity, individual replicate” value (mtrC-lacZ expression; 50 µM hormone) was 111 Miller units and 114 Miller units. For the same compound, the “β-galactosidase activity, Miller units” value (mtrC-lacZ expression; 50 µM, first data set (c15-c36)) was 228 Miller units and 242 Miller units and 200 Miller units and 220 Miller units, the “β-galactosidase activity, Miller units” value (mtrC-lacZ expression; 50 µM, second data set (c53-c74)) was 91 Miller units and 73 Miller units and the “β-galactosidase activity, single replicate” value (mtrC-lacZ expression; second block of sheet (c39-c76), 6.25 µM) was 130 Miller units and 89 Miller units and 76 Miller units and 71 Miller units. The “β-galactosidase activity, single replicate” value (mtrC-lacZ expression; second block of sheet (c39-c76), 12.5 µM) was 125 Miller units and 104 Miller units and 71 Miller units and 67 Miller units and the “β-galactosidase activity, single replicate” value (mtrC-lacZ expression; second block of sheet (c39-c76), 25 µM) was 151 Miller units and 130 Miller units and 84 Miller units and 80 Miller units.
